From ChEMBL document CHEMBL5257159, “Insights into targeting SARS-CoV-2: design, synthesis, in silico studies and antiviral evaluation of new dimethylxanthine derivatives” (RSC Med Chem, 2023)
The source made the active and inactive calls. No cut-off for these calls is given here.

What was measured:
SARS-CoV-2 = test: Antiviral activity against SARS-CoV-2 NRC-03-nhCoV infected in african green monkey Vero E6 cells assessed as inhibition of virus-induced cytopathic effect measured after 72 hrs by crystal violet staining based assay; assay type: functional, organism-based; details: Severe acute respiratory syndrome coronavirus 2, NRC-03-nhCoV, Vero C1008, 72 h
[1] = Cytotoxicity against African green monkey Vero E6 cells measured after 72 hrs by MTT assay; assay type: toxicity, cell-based, Vero C1008; details: chlorocebus sabaeus
[2] = Selectivity index, ratio of CC50 for african green monkey Vero E6 cells to IC50 for antiviral activity against SARS-CoV-2 NRC-03-nhCoV infected in african green monkey Vero E6 cells; assay type: toxicity, Vero C1008; details: read-out: Ratio CC50/IC50
HOP-62 = test: Growth inhibition of human HOP-62 cells incubated for 48 hrs by SRB assay relative to control; assay type: functional
CCRF-CEM = test: Cytotoxicity against human CCRF-CEM cells assessed as inhibition of cell growth incubated for 48 hrs by SRB assay; assay type: functional, cell-based
HL-60(TB) = test: Cytotoxicity against human HL-60(TB) cells assessed as inhibition of cell growth incubated for 48 hrs by SRB assay; assay type: functional, cell-based
K562 = test: Cytotoxicity against human K562 cells assessed as inhibition of cell growth incubated for 48 hrs by SRB assay; assay type: functional, cell-based
MOLT-4 = test: Cytotoxicity against human MOLT-4 cells assessed as inhibition of cell growth incubated for 48 hrs by SRB assay; assay type: functional, cell-based
RPMI-8226 = test: Cytotoxicity against human […] cells assessed as inhibition of cell growth incubated for 48 hrs by SRB assay; assay type: functional, cell-based
SR = test: Cytotoxicity against human SR cells assessed as inhibition of cell growth incubated for 48 hrs by SRB assay; assay type: functional, cell-based
A549 = test: Cytotoxicity against human A549 cells assessed as inhibition of cell growth incubated for 48 hrs by SRB assay; assay type: functional, cell-based
EKVX = test: Cytotoxicity against human EKVX cells assessed as inhibition of cell growth incubated for 48 hrs by SRB assay; assay type: functional, cell-based
HOP-92 = test: Cytotoxicity against human HOP-92 cells assessed as inhibition of cell growth incubated for 48 hrs by SRB assay; assay type: functional, cell-based
NCI-H226 = test: Cytotoxicity against human NCI-H226 cells assessed as inhibition of cell growth incubated for 48 hrs by SRB assay; assay type: functional, cell-based
NCI-H23 = test: Cytotoxicity against human NCI-H23 cells assessed as inhibition of cell growth incubated for 48 hrs by SRB assay; assay type: functional, cell-based
NCI-H322M = test: Cytotoxicity against human NCI-H322M cells assessed as inhibition of cell growth incubated for 48 hrs by SRB assay; assay type: functional, cell-based
NCI-H460 = test: Cytotoxicity against human NCI-H460 cells assessed as inhibition of cell growth incubated for 48 hrs by SRB assay; assay type: functional, cell-based
NCI-H522 = test: Cytotoxicity against human NCI-H522 cells assessed as inhibition of cell growth incubated for 48 hrs by SRB assay; assay type: functional, cell-based
COLO 205 = test: Cytotoxicity against human COLO 205 cells assessed as inhibition of cell growth incubated for 48 hrs by SRB assay; assay type: functional, cell-based
HCC 2998 = test: Cytotoxicity against human HCC 2998 cells assessed as inhibition of cell growth incubated for 48 hrs by SRB assay; assay type: functional, cell-based
HCT-116 = test: Cytotoxicity against human HCT-116 cells assessed as inhibition of cell growth incubated for 48 hrs by SRB assay; assay type: functional, cell-based
HCT-15 = test: Cytotoxicity against human HCT-15 cells assessed as inhibition of cell growth incubated for 48 hrs by SRB assay; assay type: functional, cell-based
HT-29 = test: Cytotoxicity against human HT-29 cells assessed as inhibition of cell growth incubated for 48 hrs by SRB assay; assay type: functional, cell-based
KM12 = test: Cytotoxicity against human KM12 cells assessed as inhibition of cell growth incubated for 48 hrs by SRB assay; assay type: functional, cell-based
SW-620 = test: Cytotoxicity against human SW620 cells assessed as inhibition of cell growth incubated for 48 hrs by SRB assay; assay type: functional, cell-based
SF-268 = test: Cytotoxicity against human SF-268 cells assessed as inhibition of cell growth incubated for 48 hrs by SRB assay; assay type: functional, cell-based
SF-295 = test: Cytotoxicity against human SF-295 cells assessed as inhibition of cell growth incubated for 48 hrs by SRB assay; assay type: functional, cell-based
SF-539 = test: Cytotoxicity against human SF-539 cells assessed as inhibition of cell growth incubated for 48 hrs by SRB assay; assay type: functional, cell-based
SNB-19 = test: Cytotoxicity against human SNB-19 cells assessed as inhibition of cell growth incubated for 48 hrs by SRB assay; assay type: functional, cell-based
SNB-75 = test: Cytotoxicity against human SNB-75 cells assessed as inhibition of cell growth incubated for 48 hrs by SRB assay; assay type: functional, cell-based
U-251 = test: Cytotoxicity against human U-251 cells assessed as inhibition of cell growth incubated for 48 hrs by SRB assay; assay type: functional, cell-based
LOX IMVI = test: Cytotoxicity against human LOX IMVI cells assessed as inhibition of cell growth incubated for 48 hrs by SRB assay; assay type: functional, cell-based
Malme-3M = test: Cytotoxicity against human Malme-3M cells assessed as inhibition of cell growth incubated for 48 hrs by SRB assay; assay type: functional, cell-based
M14 = test: Cytotoxicity against human M14 cells assessed as inhibition of cell growth incubated for 48 hrs by SRB assay; assay type: functional, cell-based
MDA-MB-435 = test: Cytotoxicity against human MDA-MB-435 cells assessed as inhibition of cell growth incubated for 48 hrs by SRB assay; assay type: functional, cell-based
SK-MEL-2 = test: Cytotoxicity against human SK-MEL-2 cells assessed as inhibition of cell growth incubated for 48 hrs by SRB assay; assay type: functional, cell-based
SK-MEL-28 = test: Cytotoxicity against human SK-MEL-28 cells assessed as inhibition of cell growth incubated for 48 hrs by SRB assay; assay type: functional, cell-based
SK-MEL-5 = test: Cytotoxicity against human SK-MEL-5 cells assessed as inhibition of cell growth incubated for 48 hrs by SRB assay; assay type: functional, cell-based
UACC-257 = test: Cytotoxicity against human UACC-257 cells assessed as inhibition of cell growth incubated for 48 hrs by SRB assay; assay type: functional, cell-based
IGROV-1 = test: Cytotoxicity against human IGROV-1 cells assessed as inhibition of cell growth incubated for 48 hrs by SRB assay; assay type: functional, cell-based
OVCAR-3 = test: Cytotoxicity against human OVCAR-3 cells assessed as inhibition of cell growth incubated for 48 hrs by SRB assay; assay type: functional, cell-based
OVCAR-4 = test: Cytotoxicity against human OVCAR-4 cells assessed as inhibition of cell growth incubated for 48 hrs by SRB assay; assay type: functional, cell-based
OVCAR-5 = test: Cytotoxicity against human OVCAR-5 cells assessed as inhibition of cell growth incubated for 48 hrs by SRB assay; assay type: functional, cell-based
OVCAR-8 = test: Cytotoxicity against human OVCAR-8 cells assessed as inhibition of cell growth incubated for 48 hrs by SRB assay; assay type: functional, cell-based
NCI/ADR-RES = test: Cytotoxicity against human NCI/ADR-RES cells assessed as inhibition of cell growth incubated for 48 hrs by SRB assay; assay type: functional, cell-based
SK-OV-3 = test: Cytotoxicity against human SK-OV-3 cells assessed as inhibition of cell growth incubated for 48 hrs by SRB assay; assay type: functional, cell-based
786-0 = test: Cytotoxicity against human 786-0 cells assessed as inhibition of cell growth incubated for 48 hrs by SRB assay; assay type: functional, cell-based
A498 = test: Cytotoxicity against human A498 cells assessed as inhibition of cell growth incubated for 48 hrs by SRB assay; assay type: functional, cell-based
ACHN = test: Cytotoxicity against human ACHN cells assessed as inhibition of cell growth incubated for 48 hrs by SRB assay; assay type: functional, cell-based
CAKI-1 = test: Cytotoxicity against human CAKI-1 cells assessed as inhibition of cell growth incubated for 48 hrs by SRB assay; assay type: functional, cell-based
RXF 393 = test: Cytotoxicity against human RXF 393 cells assessed as inhibition of cell growth incubated for 48 hrs by SRB assay; assay type: functional, cell-based
SN12C = test: Cytotoxicity against human SN12C cells assessed as inhibition of cell growth incubated for 48 hrs by SRB assay; assay type: functional, cell-based
TK-10 = test: Cytotoxicity against human TK-10 cells assessed as inhibition of cell growth incubated for 48 hrs by SRB assay; assay type: functional, cell-based
PC-3 = test: Cytotoxicity against human PC-3 cells assessed as inhibition of cell growth incubated for 48 hrs by SRB assay; assay type: functional, cell-based
DU-145 = test: Cytotoxicity against human DU-145 cells assessed as inhibition of cell growth incubated for 48 hrs by SRB assay; assay type: functional, cell-based
MCF7 = test: Cytotoxicity against human MCF7 cells assessed as inhibition of cell growth incubated for 48 hrs by SRB assay; assay type: functional, cell-based
MDA-MB-231 = test: Cytotoxicity against human MDA-MB-231 cells assessed as inhibition of cell growth incubated for 48 hrs by SRB assay; assay type: functional, cell-based
Hs578Bst = test: Cytotoxicity against human Hs578Bst cells assessed as inhibition of cell growth incubated for 48 hrs by SRB assay; assay type: functional, cell-based
BT-549 = test: Cytotoxicity against human BT-549 cells assessed as inhibition of cell growth incubated for 48 hrs by SRB assay; assay type: functional, cell-based
T47D = test: Cytotoxicity against human T47D cells assessed as inhibition of cell growth incubated for 48 hrs by SRB assay; assay type: functional, cell-based
MDA-MB-468 = test: Cytotoxicity against human MDA-MB-468 cells assessed as inhibition of cell growth incubated for 48 hrs by SRB assay; assay type: functional, cell-based
UO-31 = test: Cytotoxicity against human UO-31 cells assessed as inhibition of cell growth incubated for 48 hrs by SRB assay; assay type: functional, cell-based

Q: With Cn1c(=O)c2c(ncn2CCC(=O)Nc2ccc(S(=O)(=O)Nc3ncccn3)cc2)n(C)c1=O as the compound, how does the IC50 (SARS-CoV-2) read?
A: 38.4 µM

Q: And the CC50 at 72 h [1]?
A: 3940 µM

Q: What about the selectivity ratio [2] of the same compound?
A: 103

Q: What about the “growth inhibition (GI)” value (HOP-62) of the same compound?
A: 16.12%

Q: What about the Activity (CCRF-CEM) of the same compound?
A: inactive

Q: What about the Activity (HL-60(TB)) of the same compound?
A: inactive

Q: What about the Activity (K562) of the same compound?
A: inactive

Q: What about the Activity (MOLT-4) of the same compound?
A: inactive

Q: And the Activity (RPMI-8226)?
A: inactive

Q: What about the Activity (SR) of the same compound?
A: inactive

Q: What about the Activity (A549) of the same compound?
A: inactive

Q: What about the Activity (EKVX) of the same compound?
A: inactive

Q: What about the Activity (HOP-92) of the same compound?
A: inactive

Q: And the Activity (NCI-H226)?
A: inactive

Q: What about the Activity (NCI-H23) of the same compound?
A: inactive

Q: And the Activity (NCI-H322M)?
A: inactive

Q: What about the Activity (NCI-H460) of the same compound?
A: inactive

Q: What about the Activity (NCI-H522) of the same compound?
A: inactive

Q: And the Activity (COLO 205)?
A: inactive

Q: And the Activity (HCC 2998)?
A: inactive

Q: And the Activity (HCT-116)?
A: inactive

Q: And the Activity (HCT-15)?
A: inactive

Q: And the Activity (HT-29)?
A: inactive

Q: What about the Activity (KM12) of the same compound?
A: inactive

Q: And the Activity (SW-620)?
A: inactive

Q: What about the Activity (SF-268) of the same compound?
A: inactive

Q: And the Activity (SF-295)?
A: inactive

Q: And the Activity (SF-539)?
A: inactive

Q: And the Activity (SNB-19)?
A: inactive

Q: And the Activity (SNB-75)?
A: inactive

Q: And the Activity (U-251)?
A: inactive

Q: And the Activity (LOX IMVI)?
A: inactive

Q: And the Activity (Malme-3M)?
A: inactive

Q: And the Activity (M14)?
A: inactive

Q: And the Activity (MDA-MB-435)?
A: inactive

Q: And the Activity (SK-MEL-2)?
A: inactive

Q: What about the Activity (SK-MEL-28) of the same compound?
A: inactive

Q: What about the Activity (SK-MEL-5) of the same compound?
A: inactive

Q: And the Activity (UACC-257)?
A: inactive

Q: What about the Activity (IGROV-1) of the same compound?
A: inactive

Q: And the Activity (OVCAR-3)?
A: inactive

Q: What about the Activity (OVCAR-4) of the same compound?
A: inactive

Q: What about the Activity (OVCAR-5) of the same compound?
A: inactive

Q: What about the Activity (OVCAR-8) of the same compound?
A: inactive

Q: And the Activity (NCI/ADR-RES)?
A: inactive

Q: What about the Activity (SK-OV-3) of the same compound?
A: inactive

Q: And the Activity (786-0)?
A: inactive

Q: And the Activity (A498)?
A: inactive

Q: What about the Activity (ACHN) of the same compound?
A: inactive

Q: And the Activity (CAKI-1)?
A: inactive

Q: And the Activity (RXF 393)?
A: inactive

Q: What about the Activity (SN12C) of the same compound?
A: inactive

Q: What about the Activity (TK-10) of the same compound?
A: inactive

Q: And the Activity (PC-3)?
A: inactive

Q: What about the Activity (DU-145) of the same compound?
A: inactive

Q: What about the Activity (MCF7) of the same compound?
A: inactive

Q: What about the Activity (MDA-MB-231) of the same compound?
A: inactive

Q: And the Activity (Hs578Bst)?
A: inactive

Q: And the Activity (BT-549)?
A: inactive

Q: And the Activity (T47D)?
A: inactive

Q: What about the Activity (MDA-MB-468) of the same compound?
A: inactive

Q: And the Activity (UO-31)?
A: inactive
